Experimental data as given in the NIST ThermoML archive (doi:10.1016/j.jct.2016.09.040).

Key:
[1] = mn = molality of the nth substance listed, in mol/kg; settings: 75 kPa, Liquid; for viscosity: Capillary tube (Ostwald / Ubbelohde) method; for speed of sound: Frequency=3 MHz, Sing-around technique in a fixed-path interferometer; for mass density: Vibrating tube method
[2] = 75 kPa, Liquid; for viscosity: Capillary tube (Ostwald / Ubbelohde) method

[Cl-].[Na+] [sodium chloride] + O
[1]
Settings	mass density [kg/m3]	speed of sound [m/s]	viscosity [mPa·s]
293.15 K, m1 = 0.1502	1004.43	1492.5	1.011
293.15 K, m1 = 0.3004	1010.4	1502	1.018
293.15 K, m1 = 0.5002	1018.11	1514.4	1.034
293.15 K, m1 = 0.7001	1026.19	1526.9	1.059
298.15 K, m1 = 0.1502	1003.21	1506.2	0.891
298.15 K, m1 = 0.3004	1008.89	1515.3	0.908
298.15 K, m1 = 0.5002	–	1527.3	0.933
298.15 K, m1 = 0.7001	1024.85	1539.2	0.95
303.15 K, m1 = 0.1502	1001.74	1518.1	0.791
303.15 K, m1 = 0.3004	1007.39	1527	0.814
303.15 K, m1 = 0.5002	1015.58	1538.6	0.835
303.15 K, m1 = 0.7001	1023.12	1550.2	0.852
308.15 K, m1 = 0.1502	1000.1	–	0.712
308.15 K, m1 = 0.3004	1005.86	1537.1	0.738
308.15 K, m1 = 0.5002	–	1548.3	0.755
308.15 K, m1 = 0.7001	1021.53	1559.5	0.768
313.15 K, m1 = 0.1502	998.234	1537.6	0.645
313.15 K, m1 = 0.3004	1004.13	1545.7	0.665
313.15 K, m1 = 0.5002	1011.76	1556.5	0.687
313.15 K, m1 = 0.7001	–	1567.3	0.701

O [water]
[2]
Settings	viscosity [mPa·s]
293.15 K	1.003
298.15 K	0.89
303.15 K	0.798
308.15 K	0.72
313.15 K	0.653

Settings	speed of sound [m/s]
[2], 313.15 K, Frequency=3 MHz, Sing-around technique in a fixed-path interferometer	1529

O [water] + CCC(N)C(=O)O
[1], m2 = 0
Settings	mass density [kg/m3]	speed of sound [m/s]	viscosity [mPa·s]
293.15 K	–	–	1.003
298.15 K	–	–	0.89
303.15 K	–	–	0.798
308.15 K	994.063	–	0.72
313.15 K	–	1529	0.653

O [water] + [Cl-].[Na+]
[1], m2 = 0
Settings	mass density [kg/m3]	speed of sound [m/s]	viscosity [mPa·s]
293.15 K	–	–	1.003
298.15 K	–	–	0.89
303.15 K	–	–	0.798
308.15 K	994.063	–	0.72
313.15 K	–	1529	0.653
